Measurements reported in patent publication US8071355B2, “Polyhydroxyalkanoate production by coenzyme A-dependent aldehyde dehydrogenase pathways” (Metabolix, Inc., priority 2002, dated 2011).

Tested on: E. coli strain MBX1335
Conditions: for average OD-600 reached: E. coli MBX1335, 10 g/L in medium, cultures allowed to continue to grow; for inhibition of growth rate: E. coli MBX1335, minimal glucose medium, 2, 5 and 10 g/L, triplicate, FIG. 2
Method: MBX1335 was grown overnight in LB medium supplemented with 25 μg/mL chloramphenicol. […] The base medium in these 3-mL cultures contained, per liter: 5 g glucose; 1 mmol MgSO4; 10 mg thiamine; 25.5 mmol Na2HPO4; 33.3 mmol K2HPO4; 27.2 mmol KH2PO4; 2.78 mg FeSO4.7H2O; 1.98 mg MnCl2.4H2O; 2.81 mg CoSO4.7H2O; 0.17 mg CuCl2.2H2O; 1.67 mg CaCl2.2H2O; 0.29 mg ZnSO4.7H2O; 0.1 g casein hydrolysate; and 25 μg chloramphenicol.

| Compound | average OD-600 reached | inhibition of growth rate |
| --- | --- | --- |
| CCC(=O)[O-].[Na+] [propionate, sodium propionate] | 5.0 | propionate inhibits the rate of growth substantially more than 1-propanol |
| 1-propanol | 3.8 | propionate inhibits the rate of growth substantially more than 1-propanol |
